In PubChem BioAssay (NCI) one finds GI50 and TGI data, which are given here for seven molecules.

Several values for one entry are separate records, joined by “and”; a condition that tells them apart may be missing. Equal values may be shown once.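 Interpolation was linear, between the two tested concentrations surrounding the appropriate level; five concentrations were tested over 48 hours in 96-well plates. GI50 marks 50% less growth. The concentration for full growth arrest is given as TGI.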

Among the test systems are NCI-H226 lung; HOP-62 NSCLC; SF-539 CNS; KM12 colon; MOLT-4 leukemia; MCF7 breast; HCC-2998 colon; SW-620 colon; NCI/ADR-RES ovarian; NCI-H522 lung.
What all share (test): growth of human tumour cells (NCI), 48 h

As for `C=C(CN1CCN(c2cccc(C(F)(F)F)n2)CC1)c1ccc(C(=O)Nc2ccccc2N)cc1`, the GI50 with NCI-H226 lung was 13.4 µM and 20.9 µM; with HOP-62 NSCLC it was 2210 nM and 877 nM; in the assay with SF-539 CNS it was 978 nM and 331 nM; with KM12 colon, 668 nM and 455 nM; in the assay on MOLT-4 leukemia it was 855 nM and 478 nM; with MCF7 breast, 349 nM and 293 nM. The GI50 in the assay on HCC-2998 colon was 9630 nM; in the assay on SW-620 colon it was 528 nM and 416 nM; in the assay on NCI/ADR-RES ovarian, 641 nM and 400 nM; in the assay with NCI-H522 lung it was 1110 nM and 896 nM. Besides, the TGI was greater than 100 µM in the assay with NCI-H226 lung; 21.4 µM and 7.51 µM in the assay on HOP-62 NSCLC; 16.8 µM and 2.05 µM with SF-539 CNS; greater than 100 µM in the assay on KM12 colon; greater than 100 µM with MOLT-4 leukemia; greater than 100 µM with MCF7 breast. The TGI in the assay on HCC-2998 colon was greater than 100 µM; in the assay with SW-620 colon, greater than 100 µM; in the assay on NCI/ADR-RES ovarian, greater than 100 µM; with NCI-H522 lung, > 100 µM and 38.1 µM.

`Cc1ccc(Cc2cnc(NC(=O)/C=C/c3cccc(C)c3)s2)cc1`: the GI50 in the assay on NCI-H226 lung was 0.608 µM; in the assay with HOP-62 NSCLC, 238 nM; in the assay on SF-539 CNS, 149 nM; in the assay with KM12 colon, 140 nM; in the assay on MOLT-4 leukemia it was 261 nM; with MCF7 breast, 103 nM. Besides, the GI50 was 296 nM in the assay with HCC-2998 colon, 73.1 nM with SW-620 colon, 135 nM with NCI/ADR-RES ovarian and 151 nM in the assay on NCI-H522 lung. For the same molecule, the TGI was 9.3 µM in the assay with HOP-62 NSCLC; 0.9 µM in the assay on SF-539 CNS; greater than 48.4 µM in the assay on KM12 colon; greater than 100 µM in the assay with MOLT-4 leukemia; greater than 100 µM with MCF7 breast; greater than 37.1 µM in the assay on HCC-2998 colon. The values for the TGI with SW-620 colon, in the assay on NCI/ADR-RES ovarian and in the assay on NCI-H522 lung were greater than 100 µM, 2.06 µM and greater than 100 µM, respectively.

For `Cc1nc2sc(C(=O)Nc3cccc4ccccc34)c(N)c2cc1C(O)c1ccccc1` (centres undefined), the GI50 is 1.19 µM with NCI-H226 lung; 81 nM in the assay with HOP-62 NSCLC; 34.1 nM in the assay on SF-539 CNS; 44 nM in the assay with KM12 colon; 79.6 nM in the assay with MOLT-4 leukemia; 37.3 nM in the assay on MCF7 breast. In addition, the GI50 in the assay on HCC-2998 colon is 193 nM; in the assay on SW-620 colon, 37.7 nM; in the assay on NCI/ADR-RES ovarian, 37.3 nM; in the assay on NCI-H522 lung, 48 nM. Further, the TGI with NCI-H226 lung is 28.4 µM; in the assay with HOP-62 NSCLC it was 19.1 µM; in the assay on SF-539 CNS it was 0.29 µM; with KM12 colon, 1.73 µM; in the assay on MOLT-4 leukemia, greater than 65.7 µM; with MCF7 breast it was 13.4 µM. Besides, the TGI in the assay on HCC-2998 colon turned out to be 2.89 µM; with SW-620 colon, 23.4 µM; in the assay on NCI/ADR-RES ovarian, 0.968 µM; with NCI-H522 lung, 11.4 µM.

In the case of `CNC(=O)c1ccc(N2C(=S)N(c3ccc(C#N)c(C(F)(F)F)c3)C(=O)C2(C)C)cc1F`, the GI50 with NCI-H226 lung is 39.7 µM; in the assay with HOP-62 NSCLC, 25100 nM; in the assay on SF-539 CNS, greater than 48600 nM; in the assay with KM12 colon, 48100 nM; with MOLT-4 leukemia it was 33100 nM; in the assay on MCF7 breast, 33900 nM. Besides, the GI50 was greater than 40700 nM with HCC-2998 colon, greater than 52600 nM with SW-620 colon, 33300 nM in the assay on NCI/ADR-RES ovarian and 50900 nM in the assay on NCI-H522 lung. In addition, the TGI in the assay with NCI-H226 lung is greater than 71.9 µM; in the assay on HOP-62 NSCLC, greater than 67.2 µM; in the assay with SF-539 CNS, greater than 87.3 µM; with KM12 colon it was greater than 91.1 µM; in the assay with MOLT-4 leukemia it was greater than 100 µM; in the assay with MCF7 breast, greater than 82.3 µM. For the same molecule, the TGI is greater than 65.8 µM in the assay with HCC-2998 colon, greater than 100 µM in the assay with SW-620 colon, greater than 100 µM in the assay with NCI/ADR-RES ovarian and greater than 100 µM in the assay on NCI-H522 lung.

As to `COc1ccc(NC([Se])=NC23CC4CC(CC(C4)C2)C3)cc1`, the GI50 was 1.25 µM with NCI-H226 lung; 2240 nM with HOP-62 NSCLC; 1890 nM in the assay on SF-539 CNS; 1850 nM in the assay with KM12 colon; 611 nM with MOLT-4 leukemia; 1570 nM with MCF7 breast. In addition, the GI50 in the assay on HCC-2998 colon is 2860 nM; with SW-620 colon, 1510 nM; in the assay with NCI/ADR-RES ovarian it was 711 nM; in the assay on NCI-H522 lung, 1230 nM. Also, the TGI is 5.26 µM in the assay with NCI-H226 lung; 9.49 µM in the assay on HOP-62 NSCLC; 4.19 µM with SF-539 CNS; 5.54 µM in the assay with KM12 colon; 5.12 µM in the assay with MOLT-4 leukemia; 9.4 µM with MCF7 breast. Besides, the TGI in the assay on HCC-2998 colon was found to be 8.5 µM; with SW-620 colon, 6.45 µM; in the assay on NCI/ADR-RES ovarian it was 8.88 µM; in the assay with NCI-H522 lung, 4.35 µM.

`Cc1ccc2c(-c3ccnc(Nc4ccccc4)n3)c(-c3ccc(F)cc3)nn2n1`: the GI50 in the assay with NCI-H226 lung was 8.23 µM; with HOP-62 NSCLC, 19400 nM; in the assay on SF-539 CNS, 6990 nM; with KM12 colon, 7050 nM; in the assay on MOLT-4 leukemia it was 13400 nM; with MCF7 breast, 7440 nM. In addition, the GI50 was 7030 nM in the assay on HCC-2998 colon, 8370 nM with SW-620 colon, 6640 nM in the assay on NCI/ADR-RES ovarian and 4340 nM in the assay with NCI-H522 lung. For the same molecule, the TGI in the assay on NCI-H226 lung is 24.2 µM; in the assay on HOP-62 NSCLC it was greater than 25 µM; in the assay with SF-539 CNS, greater than 19.3 µM; in the assay on KM12 colon, greater than 25 µM; in the assay on MOLT-4 leukemia, greater than 25 µM; in the assay on MCF7 breast, greater than 25 µM. Further, the TGI is 22.6 µM in the assay with HCC-2998 colon, greater than 25 µM in the assay with SW-620 colon, greater than 25 µM with NCI/ADR-RES ovarian and 13.9 µM in the assay on NCI-H522 lung.

As to `O=C(O)CCCSc1ccccc1`, the TGI in the assay with NCI-H226 lung, with HOP-62 NSCLC, in the assay with SF-539 CNS, in the assay on KM12 colon, in the assay with MOLT-4 leukemia and in the assay on MCF7 breast was greater than 100 µM each time. The TGI in the assay on HCC-2998 colon, with SW-620 colon, in the assay on NCI/ADR-RES ovarian and in the assay on NCI-H522 lung was greater than 100 µM throughout.
